Here are results for 10 molecules from ChEMBL document CHEMBL5126514, “Molecular design of dual inhibitors of PI3K and potential molecular target of cancer for its treatment: A review” (Eur J Med Chem, 2022).

One may read the IC50 as the concentration that inhibits the measured activity by half. The term inhibition denotes the percentage by which the read-out fell short of the control.

Assay [1] addresses T1, Phosphatidylinositol 4,5-bisphosphate 3-kinase catalytic subunit alpha isoform (Homo sapiens, UniProt P42336). Nature of the assay: Inhibition of PI3Kalpha (unknown origin) expressed in baculovirus expression system using L-alpha-phosphatidylinositol as substrate by luminescence assay.
Another assay has as its target Histone deacetylase 1 (Homo sapiens, UniProt Q13547). The assay is described as follows: Inhibition of full-length HDAC1 (unknown origin) by Color-de-Lys assay.
Assay [2] addresses T2, Phosphatidylinositol 4,5-bisphosphate 3-kinase catalytic subunit delta isoform (Homo sapiens, UniProt O00329).
T2 sequence (O00329 whole entry): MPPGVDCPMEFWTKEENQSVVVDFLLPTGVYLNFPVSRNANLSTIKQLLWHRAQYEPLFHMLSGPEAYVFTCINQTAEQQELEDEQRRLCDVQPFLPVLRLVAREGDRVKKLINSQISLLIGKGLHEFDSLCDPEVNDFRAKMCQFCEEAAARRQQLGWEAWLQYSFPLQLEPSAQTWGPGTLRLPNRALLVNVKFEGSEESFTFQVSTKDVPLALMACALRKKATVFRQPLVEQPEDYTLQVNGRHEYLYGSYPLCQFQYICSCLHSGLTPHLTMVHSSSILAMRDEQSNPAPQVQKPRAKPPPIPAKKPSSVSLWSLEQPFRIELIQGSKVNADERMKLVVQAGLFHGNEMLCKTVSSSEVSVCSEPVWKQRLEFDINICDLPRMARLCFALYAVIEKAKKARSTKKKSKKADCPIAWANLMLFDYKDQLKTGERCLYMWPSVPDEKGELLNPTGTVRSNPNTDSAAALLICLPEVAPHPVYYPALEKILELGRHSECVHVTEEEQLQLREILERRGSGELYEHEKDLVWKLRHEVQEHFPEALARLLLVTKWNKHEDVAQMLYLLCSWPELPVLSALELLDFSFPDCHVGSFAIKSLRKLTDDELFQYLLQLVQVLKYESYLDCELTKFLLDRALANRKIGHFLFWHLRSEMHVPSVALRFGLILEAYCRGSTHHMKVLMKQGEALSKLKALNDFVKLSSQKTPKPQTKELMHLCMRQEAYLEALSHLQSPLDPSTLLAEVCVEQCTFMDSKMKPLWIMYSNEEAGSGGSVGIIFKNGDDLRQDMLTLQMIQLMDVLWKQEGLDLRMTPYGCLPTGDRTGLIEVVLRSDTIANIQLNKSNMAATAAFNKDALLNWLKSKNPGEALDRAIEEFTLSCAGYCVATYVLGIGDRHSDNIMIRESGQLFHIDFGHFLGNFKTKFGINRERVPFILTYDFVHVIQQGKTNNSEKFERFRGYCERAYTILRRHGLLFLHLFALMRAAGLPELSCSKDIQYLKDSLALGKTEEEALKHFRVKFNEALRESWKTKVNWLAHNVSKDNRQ
The assay is described as follows: Inhibition of PI3Kdelta (unknown origin).

In assay [3] the target is T3, Protein deacetylase HDAC6 (Homo sapiens, UniProt Q9UBN7).
T3 sequence (Q9UBN7 whole entry): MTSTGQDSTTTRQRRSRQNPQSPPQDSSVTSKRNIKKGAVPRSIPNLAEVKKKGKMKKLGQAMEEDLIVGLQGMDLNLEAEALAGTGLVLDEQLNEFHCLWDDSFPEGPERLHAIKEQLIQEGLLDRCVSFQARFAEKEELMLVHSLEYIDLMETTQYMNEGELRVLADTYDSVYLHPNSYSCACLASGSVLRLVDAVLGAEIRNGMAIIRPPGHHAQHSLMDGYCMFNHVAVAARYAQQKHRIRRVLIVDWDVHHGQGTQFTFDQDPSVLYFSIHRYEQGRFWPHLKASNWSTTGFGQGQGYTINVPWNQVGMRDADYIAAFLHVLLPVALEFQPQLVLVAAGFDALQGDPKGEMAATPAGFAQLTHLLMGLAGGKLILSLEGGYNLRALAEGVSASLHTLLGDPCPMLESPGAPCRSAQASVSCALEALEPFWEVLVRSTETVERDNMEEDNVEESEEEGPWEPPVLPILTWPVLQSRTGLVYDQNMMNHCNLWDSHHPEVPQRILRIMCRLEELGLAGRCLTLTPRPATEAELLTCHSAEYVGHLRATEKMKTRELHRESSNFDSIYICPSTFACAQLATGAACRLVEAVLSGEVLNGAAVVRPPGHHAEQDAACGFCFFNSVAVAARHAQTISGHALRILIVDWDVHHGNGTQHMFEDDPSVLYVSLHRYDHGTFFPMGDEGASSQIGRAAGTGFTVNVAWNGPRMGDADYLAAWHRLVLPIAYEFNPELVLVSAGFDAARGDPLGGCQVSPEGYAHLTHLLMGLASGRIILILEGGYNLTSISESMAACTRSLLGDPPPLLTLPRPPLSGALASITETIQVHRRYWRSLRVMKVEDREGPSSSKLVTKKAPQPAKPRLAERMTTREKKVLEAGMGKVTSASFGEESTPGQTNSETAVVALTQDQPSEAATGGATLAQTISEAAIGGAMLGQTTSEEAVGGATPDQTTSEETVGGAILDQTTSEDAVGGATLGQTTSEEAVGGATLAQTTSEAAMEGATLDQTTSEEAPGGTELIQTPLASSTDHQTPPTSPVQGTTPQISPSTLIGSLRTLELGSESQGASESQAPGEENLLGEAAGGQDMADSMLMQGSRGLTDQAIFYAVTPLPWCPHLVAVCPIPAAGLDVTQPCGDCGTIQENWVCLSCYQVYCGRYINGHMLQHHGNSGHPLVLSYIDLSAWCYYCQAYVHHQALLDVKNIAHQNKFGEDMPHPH
The assay is described as follows: Inhibition of full-length HDAC6 (unknown origin) by Color-de-Lys assay.

Assay [4] deals with T4, Mitogen-activated protein kinase; ERK1/ERK2 (Homo sapiens) (UniProt P27361+P28482). The assay is described as follows: Inhibition of Erk1/2 phosphorylation in human A549 cells. The format is cell-based. Conditions: concentration not given here.
T4 sequence (P27361 whole entry, looked up): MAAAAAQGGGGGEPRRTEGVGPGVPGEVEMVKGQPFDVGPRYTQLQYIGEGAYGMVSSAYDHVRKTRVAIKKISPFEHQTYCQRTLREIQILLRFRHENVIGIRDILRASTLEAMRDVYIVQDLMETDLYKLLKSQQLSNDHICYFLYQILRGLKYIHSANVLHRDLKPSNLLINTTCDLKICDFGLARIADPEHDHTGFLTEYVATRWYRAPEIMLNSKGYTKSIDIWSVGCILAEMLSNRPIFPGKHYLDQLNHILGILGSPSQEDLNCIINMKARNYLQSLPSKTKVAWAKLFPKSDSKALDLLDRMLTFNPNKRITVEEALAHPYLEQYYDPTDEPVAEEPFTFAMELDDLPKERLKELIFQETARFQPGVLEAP
T4 sequence (P28482 whole entry, looked up): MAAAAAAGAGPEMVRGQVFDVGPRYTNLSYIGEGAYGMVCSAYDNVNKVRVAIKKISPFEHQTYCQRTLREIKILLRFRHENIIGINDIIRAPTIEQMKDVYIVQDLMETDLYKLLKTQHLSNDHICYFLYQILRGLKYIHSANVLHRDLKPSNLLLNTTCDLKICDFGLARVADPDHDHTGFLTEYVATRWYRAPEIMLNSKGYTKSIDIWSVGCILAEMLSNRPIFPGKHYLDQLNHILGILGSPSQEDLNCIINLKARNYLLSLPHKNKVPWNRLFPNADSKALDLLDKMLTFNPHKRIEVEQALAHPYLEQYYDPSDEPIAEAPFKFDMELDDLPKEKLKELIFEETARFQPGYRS
In a further assay the test system is A549. Nature of the assay: Anticancer activity against human A549 cells assessed as cell killing activity at 10 uM relative to control. Format: functional.
The target of assay [5] is T1, Phosphatidylinositol 4,5-bisphosphate 3-kinase catalytic subunit alpha isoform. The assay is described as follows: Inhibition of PI3Kalpha (unknown origin).
Assay [6] concerns the target T4, Mitogen-activated protein kinase; ERK1/ERK2 (Homo sapiens). Nature of the assay: Inhibition of Erk1/2 phosphorylation in human PANC-1 cells at 5 uM relative to control. The format is cell-based.
Another assay relates to PANC-1. Nature of the assay: Anticancer activity against human PANC-1 cells assessed as cell killing activity at 25 uM relative to control. The format is functional.
For assay [7], the target named is T2, Phosphatidylinositol 4,5-bisphosphate 3-kinase catalytic subunit delta isoform. The assay is described as follows: Inhibition of PI3Kdelta (unknown origin) expressed in baculovirus expression system using L-alpha-phosphatidylinositol as substrate by luminescence assay.
The target of assay [8] is Phosphatidylinositol 4,5-bisphosphate 3-kinase catalytic subunit gamma isoform (Homo sapiens, UniProt P48736). Nature of the assay: Inhibition of PI3Kgamma (unknown origin) expressed in baculovirus expression system using L-alpha-phosphatidylinositol as substrate by luminescence assay.
Phosphatidylinositol 4,5-bisphosphate 3-kinase catalytic subunit gamma isoform, sequence (P48736 whole entry, canonical isoform): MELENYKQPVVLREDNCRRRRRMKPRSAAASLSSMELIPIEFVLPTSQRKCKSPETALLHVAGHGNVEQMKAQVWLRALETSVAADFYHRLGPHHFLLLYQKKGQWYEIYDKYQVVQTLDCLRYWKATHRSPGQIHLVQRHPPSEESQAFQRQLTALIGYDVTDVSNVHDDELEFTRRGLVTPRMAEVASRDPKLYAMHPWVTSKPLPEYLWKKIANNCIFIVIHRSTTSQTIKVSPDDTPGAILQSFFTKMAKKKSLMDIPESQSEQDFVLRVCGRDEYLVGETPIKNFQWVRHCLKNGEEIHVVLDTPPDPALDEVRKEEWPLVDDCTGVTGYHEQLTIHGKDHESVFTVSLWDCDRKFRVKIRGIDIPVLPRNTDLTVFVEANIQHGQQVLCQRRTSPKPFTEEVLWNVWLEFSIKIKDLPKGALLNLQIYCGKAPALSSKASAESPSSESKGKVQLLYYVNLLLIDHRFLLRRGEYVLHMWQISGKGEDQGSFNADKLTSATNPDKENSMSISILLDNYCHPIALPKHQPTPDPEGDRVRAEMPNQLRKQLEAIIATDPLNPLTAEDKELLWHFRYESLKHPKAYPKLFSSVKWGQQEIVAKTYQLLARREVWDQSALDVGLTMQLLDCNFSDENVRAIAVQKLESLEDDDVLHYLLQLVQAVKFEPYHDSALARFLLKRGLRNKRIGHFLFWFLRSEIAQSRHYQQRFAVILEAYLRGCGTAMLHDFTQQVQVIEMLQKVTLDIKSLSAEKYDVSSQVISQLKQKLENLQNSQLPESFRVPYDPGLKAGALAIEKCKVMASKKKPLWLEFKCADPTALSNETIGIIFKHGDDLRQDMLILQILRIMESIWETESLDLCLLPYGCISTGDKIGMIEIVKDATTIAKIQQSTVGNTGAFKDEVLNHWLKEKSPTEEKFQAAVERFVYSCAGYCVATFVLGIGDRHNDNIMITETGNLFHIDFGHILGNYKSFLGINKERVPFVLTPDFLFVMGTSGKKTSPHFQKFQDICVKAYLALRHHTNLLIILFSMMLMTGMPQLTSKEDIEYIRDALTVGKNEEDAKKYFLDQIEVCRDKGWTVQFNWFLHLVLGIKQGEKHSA
Assay [9] in a line: Inhibition of PI3K (unknown origin). More on the design: species or system Homo sapiens.
Assay [10] is described as follows: Inhibition of mTORC1 (unknown origin). Details: species or system Homo sapiens.
The target of assay [11] is T5, Polyamine deacetylase HDAC10 (Homo sapiens, UniProt Q969S8).
T5 sequence (Q969S8 whole entry): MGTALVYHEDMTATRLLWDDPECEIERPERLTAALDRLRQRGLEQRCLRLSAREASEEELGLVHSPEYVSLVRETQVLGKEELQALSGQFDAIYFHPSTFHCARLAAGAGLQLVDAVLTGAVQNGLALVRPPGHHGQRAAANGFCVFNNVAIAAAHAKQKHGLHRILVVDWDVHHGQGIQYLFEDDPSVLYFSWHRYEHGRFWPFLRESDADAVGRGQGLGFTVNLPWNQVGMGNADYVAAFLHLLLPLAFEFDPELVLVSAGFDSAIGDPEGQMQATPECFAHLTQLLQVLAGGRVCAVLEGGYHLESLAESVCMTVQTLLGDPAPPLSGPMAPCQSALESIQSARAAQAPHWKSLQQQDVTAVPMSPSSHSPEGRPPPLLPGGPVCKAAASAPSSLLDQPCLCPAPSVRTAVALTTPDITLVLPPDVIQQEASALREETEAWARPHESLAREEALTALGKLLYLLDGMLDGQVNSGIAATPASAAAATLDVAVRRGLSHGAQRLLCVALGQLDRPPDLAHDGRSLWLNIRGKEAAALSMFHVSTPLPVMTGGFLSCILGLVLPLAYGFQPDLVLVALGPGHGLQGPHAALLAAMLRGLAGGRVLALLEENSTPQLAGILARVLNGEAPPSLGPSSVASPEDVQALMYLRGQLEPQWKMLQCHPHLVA
The assay is described as follows: Inhibition of full-length HDAC10 (unknown origin) by Color-de-Lys assay.

Assay [12] addresses T2, Phosphatidylinositol 4,5-bisphosphate 3-kinase catalytic subunit delta isoform. Nature of the assay: Inhibition of full-length PI3Kdelta (unknown origin) expressed in baculovirus infected Sf9 cells by ADP-Glo luminescent kinase assay.
Assay [13] deals with T1, Phosphatidylinositol 4,5-bisphosphate 3-kinase catalytic subunit alpha isoform. Nature of the assay: Inhibition of full-length PI3Kalpha (unknown origin) expressed in baculovirus infected Sf9 cells by ADP-Glo luminescent kinase assay. For orientation: ADP-Glo turns the ADP formed in a reaction into a luminescent signal.
In assay [14] the target is Phosphatidylinositol 4,5-bisphosphate 3-kinase catalytic subunit beta isoform (Homo sapiens, UniProt P42338). The assay is described as follows: Inhibition of full-length PI3Kbeta (unknown origin) expressed in baculovirus infected Sf9 cells by ADP-Glo luminescent kinase assay.
Phosphatidylinositol 4,5-bisphosphate 3-kinase catalytic subunit beta isoform, sequence (P42338 whole entry, canonical isoform): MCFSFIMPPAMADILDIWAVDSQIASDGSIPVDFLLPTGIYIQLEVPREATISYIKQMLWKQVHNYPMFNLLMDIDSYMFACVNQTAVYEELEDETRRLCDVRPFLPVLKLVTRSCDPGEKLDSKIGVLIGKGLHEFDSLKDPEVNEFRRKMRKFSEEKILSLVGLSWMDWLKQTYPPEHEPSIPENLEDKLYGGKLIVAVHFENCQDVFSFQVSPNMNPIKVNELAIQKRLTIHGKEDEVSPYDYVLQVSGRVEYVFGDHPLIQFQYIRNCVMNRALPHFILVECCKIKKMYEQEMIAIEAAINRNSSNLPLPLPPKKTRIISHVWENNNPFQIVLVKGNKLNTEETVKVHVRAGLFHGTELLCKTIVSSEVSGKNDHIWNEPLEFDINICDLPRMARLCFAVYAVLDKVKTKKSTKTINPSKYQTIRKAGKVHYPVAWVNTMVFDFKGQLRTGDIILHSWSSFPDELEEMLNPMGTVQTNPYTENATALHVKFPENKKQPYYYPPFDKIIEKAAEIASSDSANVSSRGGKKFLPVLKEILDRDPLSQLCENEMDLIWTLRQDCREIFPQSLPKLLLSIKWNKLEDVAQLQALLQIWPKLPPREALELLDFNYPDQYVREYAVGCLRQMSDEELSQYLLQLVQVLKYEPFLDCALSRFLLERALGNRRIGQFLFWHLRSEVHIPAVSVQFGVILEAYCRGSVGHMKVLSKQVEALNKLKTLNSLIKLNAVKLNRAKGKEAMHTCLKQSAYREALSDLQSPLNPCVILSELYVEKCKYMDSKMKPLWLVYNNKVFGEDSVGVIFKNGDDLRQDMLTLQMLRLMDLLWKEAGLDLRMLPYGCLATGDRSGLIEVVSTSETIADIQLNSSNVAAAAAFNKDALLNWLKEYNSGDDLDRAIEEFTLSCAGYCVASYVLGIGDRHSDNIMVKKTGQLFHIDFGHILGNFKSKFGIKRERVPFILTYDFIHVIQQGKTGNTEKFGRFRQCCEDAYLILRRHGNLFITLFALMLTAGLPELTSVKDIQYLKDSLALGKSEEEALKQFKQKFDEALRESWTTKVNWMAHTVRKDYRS
Assay [15] in a line: Anticancer activity against human TU183 cells assessed as growth inhibition. The format is functional, cell-based.
For another assay, the system named is SCC-4. The assay is described as follows: Anticancer activity against human SCC-4 cells assessed as growth inhibition. The format is functional, cell-based.
The test system of another assay is KB. The assay is described as follows: Anticancer activity against human KB cells assessed as growth inhibition. The format is functional, cell-based.

Histone deacetylase 1, sequence (Q13547 whole entry, canonical isoform): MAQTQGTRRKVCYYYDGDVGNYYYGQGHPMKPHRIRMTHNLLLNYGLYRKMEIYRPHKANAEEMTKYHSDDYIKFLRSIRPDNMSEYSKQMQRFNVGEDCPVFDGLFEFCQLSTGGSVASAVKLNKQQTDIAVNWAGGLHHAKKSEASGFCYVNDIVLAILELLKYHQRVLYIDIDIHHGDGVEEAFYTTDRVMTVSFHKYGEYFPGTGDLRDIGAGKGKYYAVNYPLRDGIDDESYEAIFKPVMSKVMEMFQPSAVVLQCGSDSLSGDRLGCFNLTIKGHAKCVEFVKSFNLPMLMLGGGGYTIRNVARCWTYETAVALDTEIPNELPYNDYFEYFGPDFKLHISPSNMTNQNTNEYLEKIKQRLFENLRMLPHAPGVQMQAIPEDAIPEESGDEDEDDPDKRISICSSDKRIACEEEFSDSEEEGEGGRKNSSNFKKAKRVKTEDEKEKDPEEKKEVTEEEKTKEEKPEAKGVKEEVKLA
T1 sequence (P42336 whole entry, canonical isoform): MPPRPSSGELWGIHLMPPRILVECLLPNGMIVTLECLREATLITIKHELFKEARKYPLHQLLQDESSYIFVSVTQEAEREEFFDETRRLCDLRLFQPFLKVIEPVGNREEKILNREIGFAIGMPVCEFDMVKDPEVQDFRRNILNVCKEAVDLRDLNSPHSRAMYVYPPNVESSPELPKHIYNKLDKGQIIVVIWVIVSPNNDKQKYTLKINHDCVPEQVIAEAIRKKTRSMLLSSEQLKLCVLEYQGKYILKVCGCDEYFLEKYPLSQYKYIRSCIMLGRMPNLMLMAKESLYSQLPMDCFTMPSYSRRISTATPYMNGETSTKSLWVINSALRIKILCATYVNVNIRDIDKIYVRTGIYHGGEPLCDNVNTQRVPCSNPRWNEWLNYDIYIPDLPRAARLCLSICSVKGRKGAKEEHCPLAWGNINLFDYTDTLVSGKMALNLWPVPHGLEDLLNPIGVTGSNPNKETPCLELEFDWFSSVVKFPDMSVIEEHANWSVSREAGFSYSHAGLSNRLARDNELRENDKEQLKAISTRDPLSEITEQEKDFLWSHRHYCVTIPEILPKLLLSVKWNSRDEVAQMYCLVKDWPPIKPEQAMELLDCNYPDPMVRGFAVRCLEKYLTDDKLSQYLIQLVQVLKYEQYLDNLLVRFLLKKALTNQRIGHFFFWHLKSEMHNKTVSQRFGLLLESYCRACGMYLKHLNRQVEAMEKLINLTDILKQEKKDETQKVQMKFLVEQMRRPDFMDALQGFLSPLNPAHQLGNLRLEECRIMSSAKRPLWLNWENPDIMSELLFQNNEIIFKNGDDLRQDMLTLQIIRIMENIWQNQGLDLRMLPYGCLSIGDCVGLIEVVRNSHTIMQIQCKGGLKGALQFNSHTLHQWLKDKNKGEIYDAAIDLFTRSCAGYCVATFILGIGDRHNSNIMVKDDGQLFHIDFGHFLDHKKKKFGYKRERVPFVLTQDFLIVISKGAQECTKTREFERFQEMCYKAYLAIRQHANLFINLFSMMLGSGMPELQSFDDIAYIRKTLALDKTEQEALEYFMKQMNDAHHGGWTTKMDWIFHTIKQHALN

On to `COc1ncc(-c2cc(OCCN(C)c3ncc(C(=O)NO)cn3)c3nc(N)nc(C)c3c2)cc1C`, for which the IC50 came out at 226 nM in assay [1] and 1.3 nM at Histone deacetylase 1.
In assay [2], `O=C(NOCCOCCOCCOCCN1CCN(c2nc(N3CCOCC3)nc(-n3c(C(F)F)nc4ccccc43)n2)CC1)c1ccc(F)c(F)c1Nc1ccc(I)cc1F` yielded a half-maximal inhibitory concentration (IC50) of 182 nM.
In [3], `O=C(NO)c1ccc(/C=N/NC(=O)c2ccnc(-c3ccccc3)n2)cc1` returned a half-maximal inhibitory concentration (IC50) of 18.7 nM.
For `Cc1c(Cc2cccc(N(C)S(=O)(=O)CCCNCCCCCC(=O)N3CCN(c4nc(N5CCOCC5)nc(-n5c(C(F)F)nc6ccccc65)n4)CC3)c2)c(=O)oc2cc(OC(=O)N(C)C)ccc12`, the inhibition in assay [4] and in assay [6] was 35% throughout. The inhibition at 10 µM in the assay on A549 came out at 50%. The same molecule displayed a half-maximal inhibitory concentration (IC50) in assay [5] of 172 nM. Further, the inhibition at 25 µM in the assay on PANC-1 came to 50%.
On to `CCn1c(=O)c(-c2cc[nH]n2)cc2c(C)nc(N)nc21` [VOXTALISIB], for which the IC50 is 9 nM in assay [7] and 43 nM in assay [8].
For the molecule `COc1c(OCCCCCC(=O)NO)ccc2c1N=C(NC(=O)c1ccccc1)N1CCN=C21`, the concentration for half-maximal inhibition (IC50) came out at 50 nM in assay [1] and 2.98 nM against Histone deacetylase 1.
As to `COc1ncc(-c2ccc3nccc(-c4ccnnc4)c3c2)cc1NS(=O)(=O)c1ccc(F)cc1F` [OMIPALISIB], the IC50 in assay [9] stood at 0.3 nM; in assay [10], 0.04 nM.
On to `Cn1cc(CNCC2CCN(c3ncc(C(=O)NO)cn3)CC2)c2ccccc21` [QUISINOSTAT], for which the IC50 is 2.8 nM in assay [11], 39 nM in assay [12], 19 nM in assay [13] and 54 nM in assay [14].
On to `COc1ccc(-c2ccc3ncc4c(c3c2)n(-c2ccc(N3CCNCC3)c(C(F)(F)F)c2)c(=O)n4C)cn1` [BGT-226 FREE BASE], for which the half-maximal inhibitory concentration (IC50) in assay [7] was determined as 38 nM; in assay [15], 7.4 nM; in the assay with SCC-4, 7.4 nM; in the assay on KB, 7.4 nM.
In the case of `COc1ncc(-c2cc(OCCCCCCC(=O)NO)c3nc(N)nc(C)c3c2)cc1F`, the half-inhibitory concentration (IC50) in assay [1] was found to be 42 nM; against Histone deacetylase 1, 1.4 nM.
